Read-outs that look alike come from different tables or passages of the source.
What was measured:
[1] = Pharmacokinetic profiles in rats after intravenous and oral administration; assay type: in vivo; conditions: for F: oral dose generally 5 or 10 mg/kg; for AUC(0-t) / half-life / Vd: rat, plasma; for Vd: read-out: Vss
Description: The compounds disclosed herein are assessed in pharmacokinetic studies in mice, rats, dogs or monkeys. The compounds are administered as a water solution, 2% HPMC+1% TWEEN® 80 in water solution, 5% DMSO+5% solutol in saline, 4% MC suspension or capsule. For the intravenous administration, the animals are generally given at 1 or 2 mg/kg dose. For the oral (p.o.) dosing, mice and rats are generally given 5 or 10 mg/kg dose, and dogs and monkeys are generally given 10 mg/kg dose. The blood samples (0.3 mL) are drawn at 0.25, 0.5, 1.0, 2.0, 3.0, 4.0, 6.0, 8.0, 12 and 24 h time points or 0.083, 0.25, 0.5, 1.0, 2.0, 4.0, 6.0, 8.0 and 24 h time points and centrifuged at 3,000 or 4000 rpm for 2 to 10 min. The plasma solutions are collected, stored at −20° C. or −70° C. until analyzed by LC/MS/MS as described above.

PI3K p110α/p85α (h) = molecular target: T1, PI3K p110α/p85α (h) (Homo sapiens, UniProt P42336); experiment: PI3K p110α/p85α (h) non-radioactive HTRF assay; assay type: biochemical
T1 construct: purchased Millipore UK Ltd (assay service)
Description: PI3K p110α/p85α (h) is incubated in assay buffer containing 10 μM phosphatidylinositol 4,5-bisphosphate and MgATP (concentration as required). The reaction is initiated by the addition of the ATP solution. After incubation for 30 minutes at room temperature, the reaction is stopped by the addition of stop solution containing EDTA and biotinylated phosphatidylinositol-3,4,5-trisphosphate. Finally, detection buffer is added, which contains europium-labelled anti-GST monoclonal antibody, GST-tagged GRP1 PH domain and streptavidin allophycocyanin. The plate is then read in timeresolved fluorescence mode and the homogenous time-resolved fluorescence (HTRF) signal is determined according to the formula HTRF=10000×(Em665 nm/Em620 nm).
(§1) The kinase assays described herein were performed at Millipore UK Ltd, Dundee Technology Park, Dundee DD2 1SW, UK.

[2] = Compound stability in human liver microsomes; assay type: in vitro ADME; conditions: pH 7.4; for half-life at 5 μM: human liver microsomes 0.5 mg protein/mL, compound 5 μM, NADPH 1.0 mM, 37° C., read-out: Human T1/2; for CLint scaled at 5 μM: human liver microsomes, in vivo CLint extrapolated
Description: (§2) Human or rat liver microsomes incubations were conducted in duplicate in polypropylene tubes. The typical incubation mixtures consisted of human or rat liver microsomes (0.5 mg protein/mL), compounds of interest (5 μM) and NADPH (1.0 mM) in a total volume of 200 μL potassium phosphate buffer (PBS, 100 mM, pH=7.4). Compounds were dissolved in DMSO and diluted with PBS such that the final concentration of DMSO was 0.05%. The enzymatic reactions were commenced with the addition of […] after a 3-min preincubation and incubated in a water bath open to the air at 37° C. Reactions were terminated at various time points (0, 5, 10, 15, 30, 60 min) by adding equal volume of ice-cold acetonitrile. The samples were stored at −80° C. until LC/MS/MS assays.
(§3) The concentrations of compounds in the incubation mixtures of human or rat liver microsomes were determined by a LC/MS/MS method. The ranges of the linearity in the concentration range were determined for each tested compounds.
(§4) A parallel incubation was performed using denatured microsomes as the negative control, and reactions were terminated at various time points (0, 15, 60 min) after incubation at 37° C.
(§5) Dextromethorphan (70 μM) was selected as the positive control, and reactions were terminated at various time points (0, 5, 10, 15, 30, 60 min) after incubation at 37° C. Both positive and negative control samples were included in each assay to ensure the integrity of the microsomal incubation system.
(§6) The concentrations of compounds in human or rat liver microsome incubations were plotted as a percentage of the relevant zero time point control for each reaction. The in vivo CLint were extrapolated (ref: Naritomi Y, Terashita S, Kimura S, Suzuki A, Kagayama A, Sugiyama Y. Prediction of human hepatic clearance from in vivo animal experiments and in vitro metabolic studies with liver microsomes from animals and humans. Drug Metabolism and Disposition 2001, 29: 1316-1324).

[3] = Compound stability in rat liver microsomes; assay type: in vitro ADME; conditions: pH 7.4; for half-life at 5 μM: rat liver microsomes 0.5 mg protein/mL, compound 5 μM, NADPH 1.0 mM, 37° C., read-out: Rat T1/2; for CLint scaled at 5 μM: rat liver microsomes, in vivo CLint extrapolated
Description: as §2, §3, §4, §5, §6

mTOR (h) = molecular target: T2, mTOR (h) (Homo sapiens, UniProt P42345); experiment: mTOR (h) kinase assay (33P-ATP, filter); assay type: biochemical
T2 construct: purchased Millipore UK Ltd (assay service)
Description: mTOR (h) is incubated with 50 mM HEPES pH 7.5, 1 mM EDTA, 0.01% Tween 20, 2 mg/mL substrate, 3 mM Manganese Chloride and [γ-^33P-ATP] (specific activity approx. 500 cpm/pmol, concentration as required). The reaction is initiated by the addition of the MnATP mix. After incubation for 40 minutes at room temperature, the reaction is stopped by the addition of 3% phosphoric acid solution. 10 μL of the reaction is then spotted onto a P30 filtermat and washed three times for 5 minutes in 75 mM phosphoric acid and once in methanol prior to drying and scintillation counting.
as §1

U87MG glioblastoma cells = experiment: Tumor xenograft model (U87MG), tumor growth inhibition; assay type: in vivo, athymic nude mice; conditions: 12 days
Description: The efficacy of compounds disclosed herein was evaluated in a standard murine model of tumorigenesis. Human tumor cells (U87MG glioblastoma cells from ATCC) were expended in culture, harvested, and injected subcutaneously onto the rear flank of 6-7 week old female athymic nude mice (BALB/cA nu/nu, Hunan SLAC Laboratory Animal, Co.) (n=6-10 for vehicle group and for each dosing group). When tumors reached a volume of 100-250 mm^3, animals were randomly divided into vehicle control (for example, 5% DMSO+70% Captisol® (30%), 7% HCl (pH1), 18% Captisol® (30%); or 7% DMSO, 7% HCl (pH1), 70% Captisol® (30%), 16% Captisol® (30%), or the like) and compound groups. Subsequent administration of compound by oral gavage begins anywhere from day 0 to day 15 post tumor cell challenge and generally continues with once a day for the duration of the experiment.
Progression of tumor growth is assessed by tumor volumes and recorded as a function of time. The long (L) and short (W) axes of the subcutaneous tumors were measured with calipers twice weekly, and the tumor volume (TV) calculated as (L×W^2)/2). TGI was calculated from the difference between the median tumor volumes of vehicle-treated and drug-treated mice, expressed as a percentage of the median tumor volume of the vehicle-treated control group, by the following relation:
Initial statistical analysis is done by repeated measures analysis of variance (RMANOVA), followed by Scheffe psot hoc testing for multiple comparisons. Vehicle alone (5% DMSO+70% Captisol® (30%), 7% HCl (pH1), 18% Captisol® (30%); or 7% DMSO, 7% HCl (pH1), 70% Captisol® (30%), 16% Captisol® (30%), or the like) is the negative control.

T1 sequence (P42336 whole entry): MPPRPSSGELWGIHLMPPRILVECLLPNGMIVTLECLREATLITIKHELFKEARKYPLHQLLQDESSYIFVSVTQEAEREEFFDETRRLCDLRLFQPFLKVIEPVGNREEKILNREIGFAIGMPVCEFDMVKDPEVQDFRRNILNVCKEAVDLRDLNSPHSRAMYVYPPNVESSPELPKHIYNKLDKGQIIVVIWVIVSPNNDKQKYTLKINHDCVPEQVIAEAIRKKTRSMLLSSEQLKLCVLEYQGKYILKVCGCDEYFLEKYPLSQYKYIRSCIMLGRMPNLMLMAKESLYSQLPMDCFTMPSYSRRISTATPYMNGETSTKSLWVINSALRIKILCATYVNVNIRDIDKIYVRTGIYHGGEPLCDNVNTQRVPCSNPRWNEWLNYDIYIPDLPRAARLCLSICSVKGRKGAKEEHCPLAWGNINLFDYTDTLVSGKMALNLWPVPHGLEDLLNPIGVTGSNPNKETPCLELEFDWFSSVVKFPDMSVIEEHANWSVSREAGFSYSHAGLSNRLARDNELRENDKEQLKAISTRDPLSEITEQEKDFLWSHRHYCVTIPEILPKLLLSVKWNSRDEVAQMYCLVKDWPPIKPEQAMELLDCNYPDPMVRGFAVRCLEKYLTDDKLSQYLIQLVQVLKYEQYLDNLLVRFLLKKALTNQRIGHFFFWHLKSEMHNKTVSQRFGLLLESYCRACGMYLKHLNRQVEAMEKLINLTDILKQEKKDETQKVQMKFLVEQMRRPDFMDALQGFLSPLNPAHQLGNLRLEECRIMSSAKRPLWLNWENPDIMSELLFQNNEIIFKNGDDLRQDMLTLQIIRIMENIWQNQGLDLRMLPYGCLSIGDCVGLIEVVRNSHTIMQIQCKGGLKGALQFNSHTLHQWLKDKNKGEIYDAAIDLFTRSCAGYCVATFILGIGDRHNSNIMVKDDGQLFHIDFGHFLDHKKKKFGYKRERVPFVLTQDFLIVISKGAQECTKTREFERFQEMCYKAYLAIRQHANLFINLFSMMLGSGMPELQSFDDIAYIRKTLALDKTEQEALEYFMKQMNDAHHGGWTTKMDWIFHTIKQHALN
T1 sequence (P27986 whole entry partner): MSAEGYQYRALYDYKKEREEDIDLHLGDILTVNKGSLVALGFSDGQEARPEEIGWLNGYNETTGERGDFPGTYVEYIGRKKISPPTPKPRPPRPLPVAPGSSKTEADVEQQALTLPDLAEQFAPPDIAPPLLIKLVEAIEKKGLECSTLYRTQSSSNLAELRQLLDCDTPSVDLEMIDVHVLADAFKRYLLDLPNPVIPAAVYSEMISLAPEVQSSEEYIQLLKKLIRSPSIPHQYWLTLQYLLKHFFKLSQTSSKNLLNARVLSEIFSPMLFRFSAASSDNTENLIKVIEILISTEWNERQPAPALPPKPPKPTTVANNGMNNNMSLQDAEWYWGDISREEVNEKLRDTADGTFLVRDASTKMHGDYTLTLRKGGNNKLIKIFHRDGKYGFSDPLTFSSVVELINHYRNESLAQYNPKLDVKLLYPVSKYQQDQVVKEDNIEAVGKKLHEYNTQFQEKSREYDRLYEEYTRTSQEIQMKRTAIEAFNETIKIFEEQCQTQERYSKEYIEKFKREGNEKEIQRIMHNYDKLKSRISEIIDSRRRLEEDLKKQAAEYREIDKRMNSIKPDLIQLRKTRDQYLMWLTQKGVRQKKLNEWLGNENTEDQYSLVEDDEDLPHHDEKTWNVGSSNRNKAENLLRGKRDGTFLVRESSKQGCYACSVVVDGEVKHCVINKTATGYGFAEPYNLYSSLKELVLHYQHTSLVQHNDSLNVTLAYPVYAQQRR

4-fluoro N (5 (3 (3 hydroxy-3-methylbut-1-yn-1-yl)-[1,2,4]-triazolo[4,3-b]pyridazin-6-yl)-2-methoxypyridin-3-yl)benzenesulfonamide [Ex. 12]
F ([1]; iv dose 2 mg/kg): 1.3%
AUClast ([1]; iv dosing 2 mg/kg): 411 ng·h/mL
Cl/F ([1]; iv dosing 2 mg/kg): 77.8 mL/min/kg
T1/2 ([1]; iv dosing 2 mg/kg): 4.71 h
Vss ([1]; iv dosing 2 mg/kg): 18.42 L/kg
IC50 (PI3K p110α/p85α (h)): 32 nM

COc1ncc(-c2ccc3ncc(C#CC(C)(C)O)n3n2)cc1NS(=O)(=O)c1ccc(F)cc1 [Ex. 4, 4-fluoro-N-(5-(3-(3-hydroxy-3-methylbut-1-yn-1-yl)imidazo[1,2-b]pyridazin-6-yl)-2-methoxypyridin-3-yl)benzenesulfonamide]
half-life at 5 μM [2]: 1.87 h
CLint scaled at 5 μM [2]: 15.5 mL/min/kg
half-life at 5 μM [3]: 0.666 h
CLint scaled at 5 μM [3]: 62.1 mL/min/kg
IC50 (mTOR (h)): 19 nM
IC50 (PI3K p110α/p85α (h)): 41 nM

CC#Cc1cnc2ccc(-c3cnc(OC)c(NS(=O)(=O)c4ccc(F)cc4)c3)nn12 [Ex. 5, 4-fluoro-N-(2-methoxy-5-(3-(prop-1-yn-1-yl)imidazo[1,2-b]pyridazin-6-yl)pyridin-3-yl)benzenesulfonamide]
half-life at 5 μM [2]: 1.14 h
CLint scaled at 5 μM [2]: 25.4 mL/min/kg
half-life at 5 μM [3]: 0.595 h
CLint scaled at 5 μM [3]: 69.5 mL/min/kg
F ([1]; iv dose 1 mg/kg): 95.6%
Cl/F ([1]; iv dosing 1 mg/kg): 6.17 mL/min/kg
AUC(0-t) ([1]; iv dosing 1 mg/kg): 2550 ng·h/mL
half-life ([1]; iv dosing 1 mg/kg): 8.74 h
Vd ([1]; iv dosing 1 mg/kg): 2.29 L/kg
IC50 (PI3K p110α/p85α (h)): 17 nM

COc1ncc(-c2ccc3ncc(C#N)n3n2)cc1NS(=O)(=O)c1ccc(F)cc1 [Ex. 6, N-(5-(3-cyanoimidazo[1,2-b]pyridazin-6-yl)-2-methoxypyridin-3-yl)-4-fluorobenzenesulfonamide]
F ([1]; iv dose 1 mg/kg): 123.7%
Cl/F ([1]; iv dosing 1 mg/kg): 5.5 mL/min/kg
AUC(0-t) ([1]; iv dosing 1 mg/kg): 2660 ng·h/mL
half-life ([1]; iv dosing 1 mg/kg): 3.7 h
Vd ([1]; iv dosing 1 mg/kg): 1.25 L/kg
IC50 (PI3K p110α/p85α (h)): 4 nM
TGI % U87MG (U87MG glioblastoma cells; 0.3 mg/kg oral gavage): 14%
TGI % U87MG (U87MG glioblastoma cells; 1 mg/kg oral gavage): 41%
TGI % U87MG (U87MG glioblastoma cells; 3 mg/kg oral gavage): 71%

C#Cc1cnc2ccc(-c3cnc(Cl)c(NS(=O)(=O)c4ccc(F)cc4)c3)nn12 [Ex. 7, N-(2-chloro-5-(3-ethynylimidazo[1,2-b]pyridazin-6-yl)pyridin-3-yl)-4-fluorobenzenesulfonamide]
F ([1]; iv dose 2 mg/kg): 95.4%
Cl/F ([1]; iv dosing 2 mg/kg): 0.67 mL/min/kg
AUC(0-t) ([1]; iv dosing 2 mg/kg): 48100 ng·h/mL
half-life ([1]; iv dosing 2 mg/kg): 3.19 h
Vd ([1]; iv dosing 2 mg/kg): 0.17 L/kg
IC50 (mTOR (h)): 24 nM
IC50 (PI3K p110α/p85α (h)): 20 nM
